According to ChEMBL document CHEMBL3045279, “Chiral Synthesis of Pefurazoate Enantiomers and Their Antifungal Activity to Gibberella fujikuroi” (1992):
In brackets after ≈: the same amount, converted by molar mass.

Legend:
Type in all cases: functional
[1] = system: Fusarium fujikuroi; test: Antifungal activity against Fusarium fujikuroi assessed as mycelial growth inhibition at 5 ppm after 4 days relative to control; settings: 96 h, read-out: GI
[2] = system: Fusarium fujikuroi; test: Antifungal activity against Fusarium fujikuroi assessed as mycelial growth inhibition after 4 days; settings: 96 h; for EC50: read-out: ED50 (the source's name)
[3] = system: Fusarium fujikuroi; test: Antifungal activity against Fusarium fujikuroi assessed as mycelial growth inhibition at 1.25 ppm after 4 days relative to control; settings: 96 h, read-out: GI
[4] = system: Fusarium fujikuroi; test: Antifungal activity against Fusarium fujikuroi assessed as mycelial growth inhibition at 2.5 ppm after 4 days relative to control; settings: 96 h, read-out: GI
[5] = system: Fusarium fujikuroi; test: Antifungal activity against Fusarium fujikuroi assessed as mycelial growth inhibition at 0.63 ppm after 4 days relative to control; settings: 96 h, read-out: GI
[6] = system: Fusarium fujikuroi; test: Antifungal activity against Fusarium fujikuroi assessed as mycelial growth inhibition at 0.31 ppm after 4 days relative to control; settings: 96 h, read-out: GI
[7] = system: Fusarium fujikuroi; test: Antifungal activity against Fusarium fujikuroi assessed as mycelial growth inhibition at 0.15 ppm after 4 days relative to control; settings: 96 h, read-out: GI
[8] = system: Fusarium fujikuroi; test: Antifungal activity against Fusarium fujikuroi assessed as mycelial growth inhibition at 40 ppm after 4 days relative to control; settings: 96 h, read-out: GI
[9] = system: Fusarium fujikuroi; test: Antifungal activity against Fusarium fujikuroi assessed as mycelial growth inhibition at 20 ppm after 4 days relative to control; settings: 96 h, read-out: GI
[10] = system: Fusarium fujikuroi; test: Inhibition of ergosterol biosynthesis in Fusarium fujikuroi assessed as [2-14C]-sodium acetate incorporation at 7.35 ppm after 2 hr by liquid scintillation counting analysis relative to control
[11] = system: Fusarium fujikuroi; test: Inhibition of ergosterol biosynthesis in Fusarium fujikuroi assessed as increase in 24-methylenedihydrolanosterol level in total lipids measuring [2-14C]-sodium acetate incorporation at 0.24 ppm after 2 hr by liquid scintillation counting analysis (reference value: 4.8 to 7.4%)
[12] = system: Fusarium fujikuroi; test: Inhibition of ergosterol biosynthesis in Fusarium fujikuroi assessed as decrease in ergosterol level in total lipids measuring [2-14C]-sodium acetate incorporation at 0.24 ppm after 2 hr by liquid scintillation counting analysis (reference value: 6 to 12.3%)
[13] = system: Fusarium fujikuroi; test: Inhibition of ergosterol biosynthesis in Fusarium fujikuroi assessed as decrease in ergosterol level in total lipids measuring [2-14C]-sodium acetate incorporation at 7.35 ppm after 2 hr by liquid scintillation counting analysis (reference value: 6 to 12.3%)
[14] = system: Fusarium fujikuroi; test: Antifungal activity against Fusarium fujikuroi assessed as mycelial growth inhibition at 10 ppm after 4 days relative to control; settings: 96 h, read-out: GI
[15] = system: Fusarium fujikuroi; test: Inhibition of ergosterol biosynthesis in Fusarium fujikuroi assessed as increase in 24-methylenedihydrolanosterol level in total lipids measuring [2-14C]-sodium acetate incorporation at 7.35 ppm after 2 hr by liquid scintillation counting analysis (reference value: 4.8 to 7.4%)
[16] = system: Fusarium fujikuroi; test: Inhibition of ergosterol biosynthesis in Fusarium fujikuroi assessed as [2-14C]-sodium acetate incorporation at 0.24 ppm after 2 hr by liquid scintillation counting analysis relative to control

SMILES | inhibition of growth at 5 ppm [1] | MIC [2] | EC50 [2] | inhibition of growth at 1.25 ppm [3] | inhibition of growth at 2.5 ppm [4] | inhibition of growth at 0.63 ppm [5] | inhibition of growth at 0.31 ppm [6] | inhibition of growth at 0.15 ppm [7] | inhibition of growth at 40 ppm [8] | inhibition of growth at 20 ppm [9] | inhibition at 7.35 ppm [10] | inhibition at 0.24 ppm [11] | inhibition at 0.24 ppm [12] | inhibition at 7.35 ppm [13] | inhibition of growth at 10 ppm [14] | inhibition at 7.35 ppm [15] | inhibition at 0.24 ppm [16]
C=CCCCOC(=O)C(CC)N(Cc1ccco1)C(=O)n1ccnc1 (racemic) [Pefurazoate] | 100% | 2.5 µg/mL (≈ 7.24 µM) | 0.49 µg/mL (≈ 1.42 µM) | 75% | 100% | 58% | 35% | 20% | – | – | – | – | – | – | – | – | –
C=CCCCOC(=O)[C@@H](CC)N(Cc1ccco1)C(=O)n1ccnc1 [(R)-(+)-pefurazoate] | 45% | 1.25 µg/mL (≈ 3.62 µM) | 7.35 µg/mL (≈ 21.3 µM) | 25% | 38% | – | – | – | 73% | 63% | 47% | 12.2% | 3.2% | 1.3% | 53% | 14.2% | –
C=CCCCOC(=O)[C@H](CC)N(Cc1ccco1)C(=O)n1ccnc1 [(S)-(-)-pefurazoate] | 100% | > 40 µg/mL | 0.24 µg/mL (≈ 0.695 µM) | 100% | 100% | 78% | 60% | 35% | – | – | – | 13.6% | 0.8% | – | – | – | 87%
